In patent US7803757B2, “Peptides based on the sequence of human lactoferrin and their use” (PharmaSurgics in Sweden AB, priority 1998, dated 2010):
Converted amounts (≈) assume the structure as drawn. Bridge positions count the residues as written; N and C are the ends. Ends that are not written are not given here. Peptide text beside a SMILES is read from it.

Experiments:
[1] = test system: Candida albicans ATCC 64549; assay: fungicidal and growth inhibitory activity, Candida albicans ATCC 64549 (Example 8); format: cell-based; details: for Concentration of agent for 100% killing: C. albicans ATCC 64549 1·10^5/ml, 2 hours 37° C., diluted BHI; for Concentration of agent for inhibition of growth: C. albicans ATCC 64549, spectrophotometrically after 20 hours
Procedure: Candida albicans ATCC 64549 (1·10^5/ml) was incubated in the presence of the peptides during 2 hours at 37° C. in diluted growth medium (BHI, twofold serial dilutions starting with 50 μg/ml). The fungicidal activity was measured by culturing 5 μl from each incubation well on Saboroud agar plates.
The inhibition of growth was measured spectrophotometrically after 20 hours of incubation.

E. coli O14 [2] = assay: bactericidal and growth inhibitory activity, E. coli O14 (Example 9); format: cell-based; details: for Concentration of agent for 100% killing: E. coli O14, 2 hours; for Concentration of agent for inhibition of growth: E. coli O14, spectrophotometrically after 20 hours
Procedure: E. coli O14 was incubated as described above in the presence of the peptides during 2 hours. The bactericidal activity was measured in the same way as described above.
The inhibition of growth was measured spectrophotometrically after incubation during 20 hours.

C. albicans [3] = assay: concentration for killing of 99% of C. albicans at different pH (Example 13, FIG. 2); format: cell-based; details: for concentration needed for killing of 99% of C. albicans, compared with the capped cyclic peptides (in words): FIG. 2, different pH
Text: In this example the concentrations needed of three peptides according to the invention for killing of 99% of C. albicans at different pH was compared to a reference peptide. The peptides according to the invention were peptide 2 (linear), peptide 3 (cyclic), peptide 4 (linear), peptide 5 (cyclic) and peptide 7 (lactam bridged), all capped. The reference peptides used were an uncapped cyclic form and an uncapped linear form of a Morinaga peptide, Morinaga 24 and 25. The results are illustrated in FIG. 2.

C. albicans (ATCC 64549) = assay: microbe, parasite or virus in culture
Procedure: (§1) In the examples, the minimal microbicidal concentrations (MMC) and minimal inhibitory concentrations (MIC) were determined as follows, unless otherwise specified in the examples. Bacterial or fungal strains were cultured in BHI medium over night at 37° C. A volume of the culture was transferred to a new tube with BHI and incubated for two more hours. Thereafter the cells were spun down and the pellet was suspended in BHI medium diluted 1/100 (1% BHI). The concentration of bacterial or fungal cells was spectrophotometrically determined at 650 nm. The microbial concentrations were also determined by viable counts. Peptides serially diluted in 1% BHI by twofold or tenfold steps were added in triplicate to the wells of a microtiterplate (200 μl per well). The bacterial or fungal cell solutions were added in 10 μl volumes to give a final concentration of approximately 1-5×10^5 cells per ml in the well. The microplate was incubated at 37° C. in a humid chamber for two hours. Thereafter 5 μl was taken from each well and added as a drop onto a blood agar plate and incubated over night at 37° C. The microplate was incubated for another 20 hours at 37° C. and thereafter analysed spectrophotometrically at 650 nm in a microplate reader (Emax, Molecular Devices, USA). The concentration of peptide causing a 99% reduction of the inoculum after 2 hours of incubation was defined as the MMC99%. The MIC value was defined as the concentration giving no increase in the absorbance value above the background level after 20 hours of incubation.
In this example the fungicidal activity of one of the peptides according to the invention, the peptide with SEQ. ID. NO. 7, was compared to the conventional antifungal agents flucytosine and fluconazole, and also to human lactoferrin (hLF). The antifungal agents were tested on C. albicans (ATCC 64549) in a concentration of 2×10^5 cells/ml. The tests were performed in BHI medium diluted 1/100.

[4] = test system: reference strain of S. aureus; assay: bactericidal activity, reference strain of S. aureus (Example 19); format: cell-based; details: reference strain of S. aureus 5.0×10^5 per ml, 2 hours at 37° C., lowest concentration tested 6.25 μg/ml
Procedure: In this example the bactericidal activity of three of the peptides according to the invention was studied in a test with a reference strain of S. aureus. A bacterial solution with a concentration of 5.0×10^5 S. aureus bacterial per ml was used. The concentration of each peptide needed to kill 99% of the bacteria (MMC99%) was determined after 2 hours of incubation at 37° C. The lowest concentration tested was 6.25 μg/ml.

E. coli O6K5 [5] = assay: microbicidal activity MMC99%, E. coli O6K5 (Example 28); format: cell-based; details: E. coli O6K5 (Table 24)
Procedure: as §1
(§2) In this example the microbicidal activity of eight of the peptides according to the invention was studied, and tested against E. coli O6K5 and C. albicans.
(§3) The concentration of each peptide needed to kill 99% of the microorganisms (MMC99%) was determined.

C. albicans [6] = assay: microbicidal activity MMC99%, C. albicans (Example 28); format: cell-based; details: C. albicans (Table 24)
Procedure: as §1, §2, §3

E. coli O14 [7] = assay: bactericidal activity, incubation with E. coli O14 (Example 3, exp. I and III); format: cell-based
Procedure: Human lactoferrin (hLF), peptide 3, and peptide 4, respectively, were incubated with two different strains of E. coli, E. coli O14 (experiment I) and O6K5 (experiment II), in diluted growth medium ( 1/100 BHI—brain heart infusion) for 2 hours. The peptides were also incubated with E. coli O14 in 0.05 mM KCl (pH 7) without any growth medium (experiment III). Different concentrations of the peptides were tested.
After the incubation, samples were taken for bacterial plating. Serial dilutions of five- and fourfold steps were used in experiments I and II, respectively, and of twofold steps in experiment III.
The concentrations of the different peptides required for killing 100% (experiments I and II) or 90% (experiment III) of the bacteria are given in table 2.

Candida albicans = assay: fungicidal activity against Candida albicans strains (Example 4); format: cell-based
Procedure: (§4) In this example the fungicidal activity of the peptides according to the invention was tested and compared to the fungicidal activity of human lactoferrin. Different concentrations of hLF, peptide 3 and peptide 4 were incubated with different strains of Candida albicans and Candida krusei during 1-2 hours at 37° C. in 0.05 mM KCl at pH 7.0 at two different occasions—experiment I and II, respectively. After incubation samples were taken for plating on Saboroud plates.

Candida krusei = assay: fungicidal activity against Candida krusei strains (Example 4); format: cell-based; details: Exp. I
Procedure: as §4

[8] = test system: LPS-induced IL-6 response in a monocytic cell line (THP-1); assay: inhibition of LPS-induced IL-6 response in THP-1 cells (Example 5); format: cell-based; details: IL-6 response in THP-1 cells, agent added 30 minutes after LPS
Procedure: In this example an in vitro test was performed to study the anti-inflammatory activity of the peptides according to the invention. More precisely, the inhibitory effect of the peptides according to the invention on the LPS-induced IL-6 response in a monocytic cell line (THP-1) was studied and compared to the effect of human lactoferrin by use of the method described by I. Mattsby-Baltzer et al., Pediatr. Res. 40:257-262, 1996. The IL-6 response in the THP-1 cells was induced by addition of LPS. hLF, peptide 3 and peptide 4, respectively, were added 30 minutes after LPS.

E. coli O6K5 [9] = assay: urinary tract infection in mice, bacteria (CFU) in kidney (Example 6); format: in vivo; details: Exp II, mouse strain C3H/Tif, 500 μg per mouse orally 30 minutes after instillation, 24 hours
Procedure: E. coli O6K5 was instilled into the urinary bladder of mice. 30 minutes after instillation the different agents specified in table 5 were administered orally in an amount of 500 μg per mouse and 24 hours after instillation the number of bacteria (CFU) present in bladder and in kidney was determined.
The control group consisted of 10 animals in experiment I and of 23 animals in experiment II. The animals in the control groups were given tap water instead of peptide or hLF.

## CSCC[C@H](NC(=O)[C@@H]1CC(=O)NCCCC[C@H](NC(=O)[C@H](Cc2ccccc2)NC(=O)[C@H](C)NC(=O)[C@H](CCCCN)NC(=O)[C@@H](NC(C)=O)[C@@H](C)O)C(=O)N[C@@H](Cc2c[nH]c3ccccc23)C(=O)N[C@@H](CCC(N)=O)C(=O)N[C@@H](CCCNC(=N)N)C(=O)N1)C(=O)N[C@@H](CCCNC(=N)N)C(=O)N[C@@H](CCCCN)C(=O)N[C@H](C(=O)N[C@@H](CCCNC(=N)N)C(N)=O)C(C)C [Peptide 7] (Ac-TKAFKWQRDMRKVR-NH2; lactam 5-9)
[1]
  Concentration of agent for 100% killing: 3.1 µg/mL
  Concentration of agent for inhibition of growth: 1.5 µg/mL
E. coli O14 [2]
  Concentration of agent for 100% killing: 12.5 µg/mL
  Concentration of agent for inhibition of growth: ≦1.5 μg/ml
C. albicans [3]; FIG. 2, all different pH
  concentration needed for killing of 99% of C. albicans, ranking over all pH (in words): most effective peptide at all different pH
C. albicans [3]
  concentration needed for killing of 99% of C. albicans, compared with the capped cyclic peptides (in words): better effects than the capped cyclic peptides
C. albicans (ATCC 64549); ATCC64549
  MIC: 6.2 µg/mL (≈ 3.31 µM)
C. albicans (ATCC 64549); C. albicans ATCC 64549, 2×10^5 cells/ml, BHI diluted 1/100
  MMC99%: 6.2 µg/mL
[4]
  MMC99%: ≦6.25 μg/ml
E. coli O6K5 [5]
  MMC99%: >20
C. albicans [6]
  MMC99%: 5

## Peptide 3: cyclic form of SEQ. ID. NO. 2, disulphide bridge between the two cysteines in positions 5 and 22 (Ac-EATKCFQWQRNMRKVRGPPVSCIKR; disulfide 5-22)
E. coli O14 [7]; Exp. I: 100% killing, E. coli O14, 1/100 BHI, 2 hours
  Concentration of agent for 100%/90% killing: 4.4 µg/mL
E. coli O14 [7]; Exp. III: 90% killing, E. coli O14, 0.05 mM KCl (pH 7) without growth medium
  Concentration of agent for 100%/90% killing: 12.5 µg/mL
Candida albicans; Exp. I, C. albicans ATCC 64549
  ratio hLF/pep. (concentration for 99% killing): >83
Candida albicans; Exp. I, C. albicans ATCC 64549, 0.05 mM KCl pH 7.0, 1-2 hours 37° C.
  Concentration of agent for 99% killing: 0.6 µg/mL
Candida albicans; Exp. I, C. albicans CCUG 90028
  ratio hLF/pep. (concentration for 99% killing): >83
Candida albicans; Exp. I, C. albicans CCUG 90028, 0.05 mM KCl pH 7.0
  Concentration of agent for 99% killing: 0.6 µg/mL
Candida albicans; Exp. II, C. albicans ATCC 64549
  ratio hLF/pep. (concentration for 99% killing): >133
Candida albicans; Exp. II, C. albicans ATCC 64549, 0.05 mM KCl pH 7.0
  Concentration of agent for 99% killing: 1.5 µg/mL
Candida albicans; Exp. II, C. albicans CCUG 599
  ratio hLF/pep. (concentration for 99% killing): >133
Candida albicans; Exp. II, C. albicans CCUG 599, 0.05 mM KCl pH 7.0
  Concentration of agent for 99% killing: 1.5 µg/mL
Candida albicans; Exp. II, C. albicans CCUG 1759
  ratio hLF/pep. (concentration for 99% killing): >133
Candida albicans; Exp. II, C. albicans CCUG 1759, 0.05 mM KCl pH 7.0
  Concentration of agent for 99% killing: 1.5 µg/mL
Candida krusei; C. krusei CCUG 969
  ratio hLF/pep. (concentration for 99% killing): 20
Candida krusei; C. krusei CCUG 969, 0.05 mM KCl pH 7.0
  Concentration of agent for 99% killing: 1.25 µg/mL
Candida krusei; C. krusei CCUG 35849
  ratio hLF/pep. (concentration for 99% killing): 21
Candida krusei; C. krusei CCUG 35849, 0.05 mM KCl pH 7.0
  Concentration of agent for 99% killing: 0.6 µg/mL
[8]
  % inhibition of LPS response: 17%
E. coli O6K5 [9]
  Statistical comparison of treatment group with control group of the number of bacteria, CFU, present in kidney (p, Mann-Whitney): p = 0.0574
[1]
  Concentration of agent for 100% killing: 6.2 µg/mL
  Concentration of agent for inhibition of growth: 6.2 µg/mL
E. coli O14 [2]
  Concentration of agent for 100% killing: 12.5 µg/mL
  Concentration of agent for inhibition of growth: 3.1 µg/mL
C. albicans [3]
  concentration needed for killing of 99% of C. albicans, compared with the capped cyclic peptides (in words): better effects than the capped cyclic peptides

## SEQ. ID. NO. 36: second embodiment, sequence from a position 13-25 to position 31 of human lactoferrin; sequence only in sequence listing (TKCFQWQRNMRKVR; ends and bridges not checked)
[4]
  MMC99%: ≦6.25 μg/ml

## SEQ. ID. NO. 98: 14 amino acids, modified positions 18-31 of human lactoferrin; sequence only in sequence listing (TKKFQWQRNMRKVR)
[4]
  MMC99%: ≦6.25 μg/ml
